Measurements from patent US20230072683A1, “PYRIDO-PYRIMIDIN DERIVATIVES AND PHARMACEUTICAL COMPOSITION, FOR USE IN PREVENTING OR TREATING PI3 KINASE RELATED DISEASES, COMPRISING SAME AS ACTIVE INGREDIENT” (BORYUNG PHARMACEUTICAL CO., LTD, priority 2019, published 2023).

Legend:
DNA-PK(h) = DNA-PK(h) (Homo sapiens, UniProt P78527); test: Evaluation of inhibitory activity against DNA-PK (HTRF kinase assay, GST-cMyc-p53 substrate); format: biochemical; settings: compound concentration 0.01 μM; read-out: EXP_VALUE(% Inhibition) DNA-PK(h) 0.01 μM
In short: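 p53 Ser15 phosphorylation by human DNA-PK was measured by time-resolved FRET ratio (665/620 nm ×10000) using Eu-labelled anti-phospho-Ser15 and d2 anti-GST antibodies. Substrate GST-cMyc-p53 at 50 μM; Mg/ATP-initiated, 30 min at room temperature, EDTA stop.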

[1] = biological target: PI3K-δ (PI3K(p1108/p857) (h)) (Homo sapiens, UniProt O00329); test: Evaluation of inhibitory activity against PI3K-δ (HTRF kinase assay); format: biochemical; settings: compound concentration 0.01 μM; read-out: EXP_VALUE(% Inhibition) PI3K-δ 0.01 μM
Sequence of PI3K-δ (PI3K(p1108/p857) (h)) (O00329 whole entry, the tested form may be a part): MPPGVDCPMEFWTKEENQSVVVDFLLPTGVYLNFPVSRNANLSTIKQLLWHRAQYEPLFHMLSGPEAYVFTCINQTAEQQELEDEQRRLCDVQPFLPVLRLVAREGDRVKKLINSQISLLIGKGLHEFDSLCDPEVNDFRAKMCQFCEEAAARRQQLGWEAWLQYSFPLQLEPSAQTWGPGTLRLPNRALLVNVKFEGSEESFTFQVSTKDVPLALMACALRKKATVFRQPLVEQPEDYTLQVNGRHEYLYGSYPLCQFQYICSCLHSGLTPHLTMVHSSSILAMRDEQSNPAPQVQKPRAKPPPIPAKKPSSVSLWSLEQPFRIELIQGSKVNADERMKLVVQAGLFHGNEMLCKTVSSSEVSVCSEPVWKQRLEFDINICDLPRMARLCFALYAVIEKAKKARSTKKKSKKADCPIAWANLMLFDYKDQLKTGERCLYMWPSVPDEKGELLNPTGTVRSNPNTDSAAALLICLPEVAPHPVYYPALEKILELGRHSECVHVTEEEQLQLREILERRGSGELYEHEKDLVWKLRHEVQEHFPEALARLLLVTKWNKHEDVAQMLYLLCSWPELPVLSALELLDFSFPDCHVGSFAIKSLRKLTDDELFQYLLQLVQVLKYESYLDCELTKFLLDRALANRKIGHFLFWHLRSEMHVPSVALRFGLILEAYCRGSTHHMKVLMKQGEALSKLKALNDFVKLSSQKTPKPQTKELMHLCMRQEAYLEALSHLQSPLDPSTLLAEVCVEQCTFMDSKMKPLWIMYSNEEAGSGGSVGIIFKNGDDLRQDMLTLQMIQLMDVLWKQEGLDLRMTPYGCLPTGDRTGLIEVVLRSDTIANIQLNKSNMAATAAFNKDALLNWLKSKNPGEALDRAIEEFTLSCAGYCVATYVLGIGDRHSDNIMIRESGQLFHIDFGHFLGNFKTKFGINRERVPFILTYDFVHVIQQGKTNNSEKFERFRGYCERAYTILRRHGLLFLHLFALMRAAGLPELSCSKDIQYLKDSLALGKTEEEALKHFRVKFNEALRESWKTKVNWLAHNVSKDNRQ
Sequence of PI3K-δ (PI3K(p1108/p857) (h)) (P27986 whole entry partner, the tested form may be a part): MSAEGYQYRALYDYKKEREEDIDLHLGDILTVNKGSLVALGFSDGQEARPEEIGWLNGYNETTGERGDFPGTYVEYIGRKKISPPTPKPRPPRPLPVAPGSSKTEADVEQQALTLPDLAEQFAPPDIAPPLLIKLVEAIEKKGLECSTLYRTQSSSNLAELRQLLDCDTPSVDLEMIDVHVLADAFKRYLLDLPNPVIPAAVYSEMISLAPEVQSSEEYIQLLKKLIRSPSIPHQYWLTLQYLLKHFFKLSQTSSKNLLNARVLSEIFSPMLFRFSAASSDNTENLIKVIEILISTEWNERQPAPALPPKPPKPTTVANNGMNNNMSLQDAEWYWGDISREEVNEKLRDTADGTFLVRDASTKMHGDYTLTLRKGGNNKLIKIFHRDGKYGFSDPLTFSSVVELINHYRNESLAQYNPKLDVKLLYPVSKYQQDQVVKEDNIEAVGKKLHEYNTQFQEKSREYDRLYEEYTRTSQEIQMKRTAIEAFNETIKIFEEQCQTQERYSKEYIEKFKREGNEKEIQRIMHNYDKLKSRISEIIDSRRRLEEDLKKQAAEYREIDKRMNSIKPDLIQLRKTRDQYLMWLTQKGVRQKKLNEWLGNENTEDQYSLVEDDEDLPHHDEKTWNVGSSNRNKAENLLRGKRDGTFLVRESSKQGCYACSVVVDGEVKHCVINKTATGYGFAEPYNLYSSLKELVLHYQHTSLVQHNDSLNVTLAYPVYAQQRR
In short: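 HTRF read-out (665/620 nm ratio ×10000) used Eu-labelled anti-GST, GST-tagged GRP1 PH domain and streptavidin-allophycocyanin after EDTA/PIP3 stop.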

SMILES | inhibition at 0.01 µM (DNA-PK(h)) | inhibition at 0.01 µM [1]
C[C@H](Nc1ncnc2[nH]ccc(=O)c12)c1c(Cl)c2cccc(-c3cnc(OCC(F)(F)F)nc3)c2c(=O)n1-c1ccccc1 [Example 184, (S)-4-((1-(4-chloro-1-oxo-2-phenyl-8-(2-(2,2,2-trifluoroethoxy)pyrimidin-5-yl)-1,2-dihydroisoquinolin-3-yl)ethyl)amino)pyrido[2,3-d]pyrimidin-5(8H)-one] | 38% | 78%
C[C@H](Nc1ncnc2[nH]ccc(=O)c12)c1c(Cl)c2cccc(-c3ccc(Oc4ccccc4)nc3)c2c(=O)n1-c1ccccc1 [Example 185, (S)-4-((1-(4-chloro-1-oxo-8-(6-phenoxypyridin-3-yl)-2-phenyl-1,2-dihydroisoquinolin-3-yl)ethyl)amino)pyrido[2,3-d]pyrimidin-5(8H)-one] | 33% | 95%
COc1ncc(-c2cccc3c(Cl)c([C@H](C)Nc4ncnc5[nH]ccc(=O)c45)n(-c4ccccc4)c(=O)c23)cc1Cl [Example 187, (S)-4-((1-(4-chloro-8-(5-chloro-6-methoxypyridin-3-yl)-1-oxo-2-phenyl-1,2-dihydroisoquinolin-3-yl)ethyl)amino)pyrido[2,3-d]pyrimidin-5(8H)-one] | 45% | 79%
C[C@H](Nc1ncnc2[nH]ccc(=O)c12)c1c(Cl)c2cccc(-c3ccnc(N4CCOCC4)c3)c2c(=O)n1-c1ccccc1 [Example 190, (S)-4-((1-(4-chloro-8-(2-morpholinopyridin-4-yl)-1-oxo-2-phenyl-1,2-dihydroisoquinolin-3-yl)ethyl)amino)pyrido[2,3-d]pyrimidin-5(8H)-one] | 85% | 87%
COc1ccc(-c2cccc3c(Cl)c([C@H](C)Nc4ncnc5[nH]ccc(=O)c45)n(-c4ccccc4)c(=O)c23)cc1F [Example 191, (S)-4-((1-(4-chloro-8-(3-fluoro-4-methoxyphenyl)-1-oxo-2-phenyl-1,2-dihydroisoquinolin-3-yl)ethyl)amino)pyrido[2,3-d]pyrimidin-5(8H)-one] | 102% | 85%
C[C@H](Nc1ncnc2[nH]ccc(=O)c12)c1c(Cl)c2cccc(-c3cc(F)c4c(c3)NCCO4)c2c(=O)n1-c1ccccc1 [Example 192, (S)-4-((1-(4-chloro-8-(8-fluoro-3,4-dihydro-2H-benzo[b] [1,4]oxazin-6-yl)-1-oxo-2-phenyl-1,2-dihydroisoquinolin-3-yl)ethyl)amino)pyrido[2,3-d]pyrimidin-5(8H)-one] | 25% | 72%
CC(C)NC(=O)c1ccc(-c2cccc3c(Cl)c([C@H](C)Nc4ncnc5[nH]ccc(=O)c45)n(-c4ccccc4)c(=O)c23)cc1 [Example 193, (S)-4-(4-chloro-1-oxo-3-(1-((5-oxo-5,8-dihydropyrido[2,3-d]pyrimidin-4-yl)amino)ethyl)-2-phenyl-1,2-dihydroisoquinolin-8-yl)-N-isopropylbenzamide] | 71% | 72%
C[C@H](Nc1ncnc2[nH]ccc(=O)c12)c1c(Cl)c2cccc(-c3ccc(N4CCCCC4)nc3)c2c(=O)n1-c1ccccc1 [Example 194, (S)-4-((1-(4-chloro-1-oxo-2-phenyl-8-(6-(piperidin-1-yl)pyridin-3-yl)-1,2-dihydroisoquinolin-3-yl)ethyl)amino)pyrido[2,3-d]pyrimidin-5(8H)-one] | 31% | 59%
C[C@H](Nc1ncnc2[nH]ccc(=O)c12)c1c(Cl)c2cccc(-c3ccnc(F)c3)c2c(=O)n1-c1ccccc1 [Example 195, (S)-4-((1-(4-chloro-8-(2-fluoropyridin-4-yl)-1-oxo-2-phenyl-1,2-dihydroisoquinolin-3-yl)ethyl)amino)pyrido[2,3-d]pyrimidin-5(8H)-one] | 101% | 118%
C[C@H](Nc1ncnc2[nH]ccc(=O)c12)c1c(Cl)c2cccc(-c3cnccn3)c2c(=O)n1-c1ccccc1 [Example 198, (S)-4-((1-(4-chloro-1-oxo-2-phenyl-8-(pyrazin-2-yl)-1,2-dihydroisoquinolin-3-yl)ethyl)amino)pyrido[2,3-d]pyrimidin-5(8H)-one] | 63% | 90%
CCOc1c(OC)ccc(-c2cccc3c(Cl)c([C@H](C)Nc4ncnc5[nH]ccc(=O)c45)n(-c4ccccc4)c(=O)c23)c1F [Example 199, (S)-4-((1-(4-chloro-8-(3-ethoxy-2-fluoro-4-methoxyphenyl)-1-oxo-2-phenyl-1,2-dihydroisoquinolin-3-yl)ethyl)amino)pyrido[2,3-d]pyrimidin-5(8H)-one] | 60% | 35%
C[C@H](Nc1ncnc2[nH]ccc(=O)c12)c1c(Cl)c2cccc(-c3cnc(N4CCC4)nc3)c2c(=O)n1-c1ccccc1 [Example 200, (S)-4-((1-(8-(2-(azetidin-1-yl)pyrimidin-5-yl)-4-chloro-1-oxo-2-phenyl-1,2-dihydroisoquinolin-3-yl)ethyl)amino)pyrido[2,3-d]pyrimidin-5(8H)-one] | 72% | 77%
C[C@H](Nc1ncnc2[nH]ccc(=O)c12)c1c(Cl)c2cccc(-c3cnc(N(C)C)cn3)c2c(=O)n1-c1ccccc1 [Example 205, (S)-4-((1-(4-chloro-8-(5-(dimethylamino)pyrazin-2-yl)-1-oxo-2-phenyl-1,2-dihydroisoquinolin-3-yl)ethyl)amino)pyrido[2,3-d]pyrimidin-5(8H)-one] | 47% | 49%
C[C@H](Nc1ncnc2[nH]ccc(=O)c12)c1c(Cl)c2cccc(-c3cnc(OC(C)(C)C)cn3)c2c(=O)n1-c1ccccc1 [Example 206, (S)-4-((1-(8-(5-(tert-butoxy)pyrazin-2-yl)-4-chloro-1-oxo-2-phenyl-1,2-dihydroisoquinolin-3-yl)ethyl)amino)pyrido[2,3-d]pyrimidin-5(8H)-one] | 29% | 45%
C[C@H](Nc1ncnc2[nH]ccc(=O)c12)c1c(Cl)c2cccc(-c3cnc(N4CCOCC4)cn3)c2c(=O)n1-c1ccccc1 [Example 207, (S)-4-((1-(4-chloro-8-(5-morpholinopyrazin-2-yl)-1-oxo-2-phenyl-1,2-dihydroisoquinolin-3-yl)ethyl)amino)pyrido[2,3-d]pyrimidin-5(8H)-one] | 52% | 57%

The next lines start with the values.

inhibition at 0.01 µM (DNA-PK(h)) | inhibition at 0.01 µM [1] | SMILES
49% | 94% | COc1ncc(-c2cccc3c(Cl)c([C@H](C)Nc4ncnc5[nH]ccc(=O)c45)n(-c4ccccc4)c(=O)c23)cc1F [Example 186, (S)-4-((1-(4-chloro-8-(5-fluoro-6-methoxypyridin-3-yl)-1-oxo-2-phenyl-1,2-dihydroisoquinolin-3-yl)ethyl)amino)pyrido[2,3-d]pyrimidin-5(8H)-one]
67% | 101% | CCOc1ncc(-c2cccc3c(Cl)c([C@H](C)Nc4ncnc5[nH]ccc(=O)c45)n(-c4ccccc4)c(=O)c23)cn1 [Example 188, (S)-4-((1-(4-chloro-8-(2-ethoxypyrimidin-5-yl)-1-oxo-2-phenyl-1,2-dihydroisoquinolin-3-yl)ethyl)amino)pyrido[2,3-d]pyrimidin-5(8H)-one]
101% | 127% | CNC(=O)c1ccc(-c2cccc3c(Cl)c([C@H](C)Nc4ncnc5[nH]ccc(=O)c45)n(-c4ccccc4)c(=O)c23)cn1 [Example 196, (S)-5-(4-chloro-1-oxo-3-(1-((5-oxo-5,8-dihydropyrido[2,3-d]pyrimidin-4-yl)amino)ethyl)-2-phenyl-1,2-dihydroisoquinolin-8-yl)-N-methylpicolinamide]
61% | 91% | COc1ncc(-c2cccc3c(Cl)c([C@H](C)Nc4ncnc5[nH]ccc(=O)c45)n(-c4ccccc4)c(=O)c23)cc1C [Example 197, (S)-4-((1-(4-chloro-8-(6-methoxy-5-methylpyridin-3-yl)-1-oxo-2-phenyl-1,2-dihydroisoquinolin-3-yl)ethyl)amino)pyrido[2,3-d]pyrimidin-5(8H)-one]
73% | 80% | C[C@H](Nc1ncnc2[nH]ccc(=O)c12)c1c(Cl)c2cccc(-c3ccc(C(N)=O)nc3)c2c(=O)n1-c1ccccc1 [Example 201, (S)-5-(4-chloro-1-oxo-3-(1-((5-oxo-5,8-dihydropyrido[2,3-d]pyrimidin-4-yl)amino)ethyl)-2-phenyl-1,2-dihydroisoquinolin-8-yl) picolinamide]
70% | 78% | CC(=O)Nc1ccc(-c2cccc3c(Cl)c([C@H](C)Nc4ncnc5[nH]ccc(=O)c45)n(-c4ccccc4)c(=O)c23)cn1 [Example 202, (S)—N-(5-(4-chloro-1-oxo-3-(1-((5-oxo-5,8-dihydropyrido[2,3-d]pyrimidin-4-yl)amino)ethyl)-2-phenyl-1,2-dihydroisoquinolin-8-yl)pyridin-2-yl) acetamide]
79% | 106% | C[C@H](Nc1ncnc2[nH]ccc(=O)c12)c1c(Cl)c2cccc(-c3cnc(NC4CC4)nc3)c2c(=O)n1-c1ccccc1 [Example 203, (S)-4-((1-(4-chloro-8-(2-(cyclopropylamino)pyrimidin-5-yl)-1-oxo-2-phenyl-1,2-dihydroisoquinolin-3-yl)ethyl)amino)pyrido[2,3-d]pyrimidin-5(8H)-one]
66% | 73% | COc1cncc(-c2cccc3c(Cl)c([C@H](C)Nc4ncnc5[nH]ccc(=O)c45)n(-c4ccccc4)c(=O)c23)n1 [Example 204, (S)-4-((1-(4-chloro-8-(6-methoxypyrazin-2-yl)-1-oxo-2-phenyl-1,2-dihydroisoquinolin-3-yl)ethyl)amino)pyrido[2,3-d]pyrimidin-5(8H)-one]
